Measured values taken from US5773573A, “HIV peptides” (priority 1994, dated 1998).
Residues, ends and D or L forms follow the SMILES beside them.

Experiment: White cell and T cell subset counts (CD4, CD8, NK) in HIV infected patient given HEP1
Assay type: in vivo, human
Conditions: patient three
Description: The objective of this study was to determine in an HIV infected patient if the induction of immunological tolerance to HEP1 could reduce immune activation and HIV infection. The design of the first clinical experiment was to orally administer HEP1 to the patient in daily 10 mg doses (the lower end of the preferred dose range). This was then followed approximately three months later with a subcutaneous administration of HEP1 at a higher dose of 140 mg. To assess the therapeutic benefit of HEP1, the following disease progression markers were measured by taking blood samples before, during and after each trial and determining: HIV levels by a p24 antigen assay, HIV infectivity by a cellular TCID assay and immune activation by quantitating levels of various lymphocytes.
T cell subsets were measured by adding a whole blood sample to a 4.5 ml tube containing EDTA and staining with monoclonal antibodies to CD3, CD4 and CD8. The percentage of T cells in Peripheral Blood Lymphocytes were determined by flow-cytometric procedures. The numbers of CD4 and CD8 T cells were determined by obtaining total and differential white-cell counts and multiplying by the appropriate factor obtained on flow cytometry.
The following markers of HIV disease progression were assayed: p24Ag (the concentration of HIV p24 protein in picogram/ml in the blood), TCID (the infectivity of the HIV in the cells of blood sample measured by an in vitro cell culture assay in which a serial dilution of the sample was mixed with activated uninfected PBMC and the level of HIV infection determined by p24Ag assay), total white count (immune activation measured by the number of white cells per mm^3), CD4 (the number of CD4 positive cells per mm^3), CD8 (the number of CD8 positive cells per mm^3), NK (the number of Natural Killer cells per mm^3), Lymphocytes (the number of cells per mm^3), Monocytes (the number of cells per mm^3), and Granulocytes (the number of cells per mm^3). Normalised data was calculated by dividing each data point by the value of its data series on day 1 of the trail and multiplying by 100.

[1] = oral HEP1 10 mg daily day 2-22, day-69, before treatment
[2] = orally administered HEP1 10 mg daily
[3] = single subcutaneous HEP1 dose on day 1, day 1*, four hours after injection
[4] = single subcutaneous HEP1 dose on day 1, day 1, before injection
[5] = single subcutaneous HEP1 dose on day 1, day 6, after injection
[6] = single subcutaneous HEP1 dose on day 1, day-7, before treatment
[7] = single subcutaneous HEP1 dose on day 1, day-56, before treatment
[8] = single subcutaneous HEP1 dose on day 1, day-91, end of oral study
[9] = subcutaneous administration of one larger dose of HEP1

For CC(C)[C@H](NC(=O)[C@@H](NC(=O)[C@H](CCC(=O)O)NC(=O)[C@H](CCCNC(=N)N)NC(=O)[C@H](CCCNC(=N)N)NC(=O)[C@H](CCCCN)NC(=O)[C@H](CCCCN)NC(=O)[C@H](CCC(=O)O)NC(=O)[C@@H](N)[C@@H](C)O)[C@@H](C)O)C(=O)N[C@@H](CCC(=O)O)C(=O)N[C@@H](CCCNC(=N)N)C(=O)N[C@@H](CCC(=O)O)C(=O)N[C@@H](CCCCN)C(=O)N[C@@H](CCC(=O)O)C(=O)O [HEP1, NH2 ThrGluLysLysArgArgGluThrValGluArgGluLysGluCOOH] (H-TEKKRRETVEREKE-OH), the “NK, normalised data (day 1 = 100)” value [1] was 67, the White count [1] was 7900 cells per mm^3 and the “White count, normalised data (day 1 = 100)” value (shortened to “White count, normalised data”) [1] was 96. The “CD4 count, course” value [2] was “no significant increase”, the “CD8, course” value [2] was “increased during treatment” and the “total white cell count, course (immune activation)” value [2] was “fell during and after treatment and fall”. For the same compound, the “% Granulocytes” value [3] was 55%, the “% Granulocytes, normalised data (day 1 = 100)” value (from here on “% Granulocytes, normalised data”) [3] was 80 and the “% Lymphocytes” value [3] was 33%. The “% Lymphocytes, normalised data (day 1 = 100)” value (from here on “% Lymphocytes, normalised data”) [3] was 142, the “% Monocytes” value [3] was 11% and the “% Monocytes, normalised data (day 1 = 100)” value (“% Monocytes, normalised data” for short) [3] was 138. For the same compound, the CD4 [3] was 120 cells per mm^3, the “CD4, normalised data (day 1 = 100)” value [3] was 150 and the CD8 [3] was 1130 cells per mm^3. The “CD8, normalised data (day 1 = 100)” value [3] was 128, the Granulocytes [3] was 2530 cells per mm^3 and the “Granulocytes, normalised data (day 1 = 100)” value [3] was 66. The Lymphocytes [3] was 1520 cells per mm^3, the “Lymphocytes, normalised data (day 1 = 100)” value [3] was 118 and the Monocytes [3] was 510 cells per mm^3. For the same compound, the “Monocytes, normalised data (day 1 = 100)” value [3] was 113, the NK [3] was 30 cells per mm^3 and the “NK, normalised data (day 1 = 100)” value [3] was 267. For the same compound, the White count [3] was 4600 cells per mm^3, the “White count, normalised data” value [3] was 82 and the “% Granulocytes” value [4] was 69%. For the same compound, the “% Granulocytes, normalised data” value [4] was 100, the “% Lymphocytes” value [4] was 23.3% and the “% Lymphocytes, normalised data” value [4] was 100. For the same compound, the “% Monocytes” value [4] was 8%, the “% Monocytes, normalised data” value [4] was 100 and the CD4 [4] was 80 cells per mm^3. The “CD4, normalised data (day 1 = 100)” value [4] was 100, the CD8 [4] was 880 cells per mm^3 and the “CD8, normalised data (day 1 = 100)” value [4] was 100. For the same compound, the Granulocytes [4] was 3860 cells per mm^3, the “Granulocytes, normalised data (day 1 = 100)” value [4] was 100 and the Lymphocytes [4] was 1290 cells per mm^3. The “Lymphocytes, normalised data (day 1 = 100)” value [4] was 100, the Monocytes [4] was 450 cells per mm^3 and the “Monocytes, normalised data (day 1 = 100)” value [4] was 100. For the same compound, the NK [4] was 30 cells per mm^3, the “NK, normalised data (day 1 = 100)” value [4] was 100 and the White count [4] was 5600 cells per mm^3. For the same compound, the “White count, normalised data” value [4] was 100, the “% Lymphocytes” value [5] was 22.2% and the CD4 [5] was 80 cells per mm^3. The “CD4, normalised data (day 1 = 100)” value [5] was 100, the CD8 [5] was 780 cells per mm^3 and the “CD8, normalised data (day 1 = 100)” value [5] was 89. The White count [5] was 5400 cells per mm^3, the “White count, normalised data” value [5] was 96 and the “% Granulocytes” value [6] was 81%. For the same compound, the “% Granulocytes, normalised data” value [6] was 117, the “% Lymphocytes” value [6] was 12.9% and the “% Lymphocytes, normalised data” value [6] was 55. For the same compound, the “% Monocytes” value [6] was 7%, the “% Monocytes, normalised data” value [6] was 88 and the CD4 [6] was 70 cells per mm^3. The “CD4, normalised data (day 1 = 100)” value [6] was 88, the CD8 [6] was 670 cells per mm^3 and the “CD8, normalised data (day 1 = 100)” value [6] was 76. The Granulocytes [6] was 6640 cells per mm^3, the “Granulocytes, normalised data (day 1 = 100)” value [6] was 172 and the Lymphocytes [6] was 980 cells per mm^3. For the same compound, the “Lymphocytes, normalised data (day 1 = 100)” value [6] was 76, the Monocytes [6] was 570 cells per mm^3 and the “Monocytes, normalised data (day 1 = 100)” value [6] was 127. For the same compound, the NK [6] was 40 cells per mm^3, the “NK, normalised data (day 1 = 100)” value [6] was 133 and the White count [6] was 8200 cells per mm^3. The “White count, normalised data” value [6] was 146, the “% Granulocytes” value [7] was 75% and the “% Granulocytes, normalised data” value [7] was 109. For the same compound, the “% Lymphocytes” value [7] was 19%, the “% Lymphocytes, normalised data” value [7] was 82 and the “% Monocytes” value [7] was 6%. For the same compound, the “% Monocytes, normalised data” value [7] was 75, the CD4 [7] was 75 cells per mm^3 and the “CD4, normalised data (day 1 = 100)” value [7] was 94. For the same compound, the CD8 [7] was 880 cells per mm^3, the “CD8, normalised data (day 1 = 100)” value [7] was 100 and the Granulocytes [7] was 4950 cells per mm^3. For the same compound, the “Granulocytes, normalised data (day 1 = 100)” value [7] was 128, the Lymphocytes [7] was 1250 cells per mm^3 and the “Lymphocytes, normalised data (day 1 = 100)” value [7] was 97. The Monocytes [7] was 400 cells per mm^3, the “Monocytes, normalised data (day 1 = 100)” value [7] was 89 and the NK [7] was 75 cells per mm^3. The “NK, normalised data (day 1 = 100)” value [7] was 250, the White count [7] was 6600 cells per mm^3 and the “White count, normalised data” value [7] was 118. The “% Granulocytes” value [8] was 74.5%, the “% Granulocytes, normalised data” value [8] was 108 and the “% Lymphocytes” value [8] was 20%. For the same compound, the “% Lymphocytes, normalised data” value [8] was 86, the “% Monocytes” value [8] was 5.5% and the “% Monocytes, normalised data” value [8] was 69. For the same compound, the CD4 [8] was 80 cells per mm^3, the “CD4, normalised data (day 1 = 100)” value [8] was 100 and the CD8 [8] was 730 cells per mm^3. For the same compound, the “CD8, normalised data (day 1 = 100)” value [8] was 83, the Granulocytes [8] was 4020 cells per mm^3 and the “Granulocytes, normalised data (day 1 = 100)” value [8] was 104. For the same compound, the Lymphocytes [8] was 1050 cells per mm^3, the “Lymphocytes, normalised data (day 1 = 100)” value [8] was 81 and the Monocytes [8] was 440 cells per mm^3. The “Monocytes, normalised data (day 1 = 100)” value [8] was 98, the NK [8] was 20 cells per mm^3 and the “NK, normalised data (day 1 = 100)” value [8] was 67. For the same compound, the White count [8] was 5500 cells per mm^3, the “White count, normalised data” value [8] was 98 and the “CD4 and CD8 T cells, course after the rise” value [9] was “return to the pre-injection i levels six days later”. For the same compound, the “rise in CD4 T cells after the HEP1 injection” value [9] was “+50%”, the “rise in CD8 T cells after the HEP1 injection” value [9] was “+28%” and the “CD4+ and CD8+ T cells, course” value (subcutaneous administration of one larger dose of HEP1 (FIG. 3)) was “sharp increase”.
